Square brackets hold non-standard residues; d marks the D form. Peptide text beside a SMILES is read from it. * marks the point of attachment. Dolaproine = CO[C@@H]([C@@H]1CCCN1)[C@@H](C)C(=O)O; Dil = CC[C@H](C)[C@H](NC)[C@@H](CC(=O)O)OC; X1 = C[C@@H](N*)[C@@H](O)c1ccccc1; NMeV = CN[C@H](C(=O)O)C(C)C
What was measured:
Type in all cases: cell-based
Details in all cases: 144 hours, SRB dye
[1] = test system: normal cell line HaCaT; experiment: In vitro cytotoxicity, normal cell line HaCaT
Method: (§1) The cell proliferation inhibitory activity of drugs shown in Table 4 and the ADCs was measured. Gastric cancer cell lines NUGC-4, SNU-601, and SNU-602, and a pancreatic cancer cell line PATU-8988s, which are commercially available as cancer cell lines, were used, and normal cell lines HaCaT, Fa2N-4, HK-2, and HS738.st/Int were used. As for test groups treated with each cancer cell line for 144 hours, cells were seeded into a 96-well plate at the rate of 2,500 cells/well to 10,000 cells/well and cultured for 24 hours, and then each cancer cell line was treated with each drug and each ADC at a concentration of 0.256 pM to 100 nM (5-fold serial diltuion), and each normal cell line was treated with each drug and each ADC at a concentration of 2.56 pM to 1,000 nM (5-fold serial dilution). The number of cells survived after 144 hours was quantified using a sulforhodamine B (SRB) dye, and the cell line Hs738.st/Int was quantified using Cell titer glo.

[2] = test system: gastric cancer cell line SNU-620; experiment: In vitro cytotoxicity (cell proliferation inhibition), SNU-620
[3] = test system: normal cell line Fa2N-4; experiment: In vitro cytotoxicity, normal cell line Fa2N-4
Method: as §1

[4] = test system: normal cell line HK-2; experiment: In vitro cytotoxicity, normal cell line HK-2
Method: as §1

[5] = test system: gastric cancer cell line SNU-601; experiment: In vitro cytotoxicity (cell proliferation inhibition), SNU-601
Method: as §1

[6] = test system: pancreatic cancer cell line PATU-8988s; experiment: In vitro cytotoxicity (cell proliferation inhibition), PATU-8988s
Method: as §1

[7] = test system: gastric cancer cell line NUGC-4; experiment: In vitro cytotoxicity (cell proliferation inhibition), NUGC-4
Method: as §1

| SMILES | IC50 [1] | IC50 [2] | IC50 [3] | IC50 [4] | IC50 [5] | IC50 [6] | IC50 [7] |
| --- | --- | --- | --- | --- | --- | --- | --- |
| CC[C@H](C)[C@@H]([C@@H](CC(=O)N1CCC[C@H]1[C@H](OC)[C@@H](C)C(=O)N[C@H](C)[C@@H](O)c1ccccc1)OC)N(C)C(=O)[C@@H](NC(=O)[C@@H](NC)C(C)C)C(C)C [MMAE, monomethyl auristatin E] (H-[NMeV]V[Dil][Dolaproine]-X1) | 0.14 nM | 0.71 nM | 3 nM | 21.9 nM | 0.51 nM | 0.145 nM | 0.29 nM |
| C=C1C[C@H]2C=Nc3cc(OCCCCCOc4cc5c(cc4OC)C(=O)N4CC(=C)C[C@H]4C=N5)c(OC)cc3C(=O)N2C1 [SG2057] |  | 0.097 nM |  |  | 0.003 nM |  | 0.03 nM |

Reference: patent US20240131178A1, “ANTIBODY-DRUG CONJUGATE INCLUDING ANTIBODY AGAINST HUMAN CLDN18.2, AND USE THEREOF” (LEGOCHEM BIOSCIENCES, INC., priority 2021, published 2024)
